Key:
[1] = system: MPO heme ring; test: Spectral analysis of MPO heme ring with bleach (NaOCl); settings: 2 μM MPO, 2.5 mM PIC1, bleach 1:1000, n = 2
Experimental: (§1) As each component is added to the MPO it is allowed to incubate for 5 minutes. […] Absorbance values were recorded from 300–550 nm.

[2] = system: purified MPO; test: Purified MPO oxidation of O-dianisidine; assay type: biochemical; settings: PIC1 0.5–0.9 mM
Experimental: (§2) MPO peroxidase activity utilizing pure MPO was assayed by combing the MPO solution, diluted to 160 nM with PBS buffer, with an inhibitor, at denoted concentrations, in a 1:1 ratio (v/v) for 1 min. prior to adding TMB.
(§3) To measure MPO peroxidase activity using TMB, 20 μl of assay supernatant, CF sol, or neutrophil lysate was serially diluted and then combined with 100 μl of TMB in a non-treated 96-well plate followed by 100 μl of 2.5 N H2SO4 (stop buffer) and absorbance was read at 450 nm. For MPO functional assays using ABTS, 150 μl of ABTS solution was added to each sample and incubated for 5 minutes before adding 100 μl of 1% SDS to stop the reaction. Absorbance was read at 405 nm. O-dianisidine working solution was prepared by making a 0.166 mg/ml solution in 50 mM phosphate-citrate buffer, pH 5.0 with a final of 0.006% H2O2 added immediately before use. For MPO measurements, 100 μl of the prepared O-dianisidine solution was added to each sample and incubated for 2 minutes before adding 100 μl of 2.5 N H2SO4 to stop the reaction. Absorbance was read at 405 nm.

[3] = Anti-oxidant assay: TMB oxidized by solid-phase MPO, transferred to uncoated well; assay type: biochemical; settings: absorbance 450 nm, n = 4, P = 0.02
Experimental: Pure MPO was coated onto an Immunlon-2 96 well plate at 24 μg/ml in carbonate buffer overnight at 4°C. The plate was washed to remove unbound protein with PBS and 0.05% Tween, and then 100 μl of TMB was added. […] After 1 minute, 100 μl of 2.5 N H2SO4 was added to stop the reaction and absorbance was read at 450 nm.

[4] = Reversal/inhibition of TMB oxidation, PIC1 added before TMB or after TMB incubated with MPO; assay type: biochemical; settings: PIC1 added after MPO and TMB had incubated
Experimental: We then tested whether PIC1 could reverse the oxidized state of TMB after incubation with MPO.

[5] = system: purified MPO; test: Dose-response inhibition of pure MPO at various MPO concentrations; assay type: biochemical
Experimental: as §3

[6] = system: MPO; test: Ferrozine assay of Fe release from MPO in the presence of bleach; settings: 2 μM MPO, 2.5 mM PIC1, bleach 1:1000; 562 nm
Experimental: Iron release from MPO was measured utilizing a ferrozine assay. After the absorbance spectra was recorded, 100 μl of ascorbic acid (100 mM) was added to each sample and allowed to incubate for 5 minutes. Then 50 μl of ammonium acetate (16%) and 50 μl of ferrozine (16 mM) were added to the samples and mixed. After incubating for 5 minutes, absorbance was measured at 562 nm. A standard curve was prepared using ammonium Fe(III) sulfate and a linear regression was used to calculate the free iron concentration.

[7] = system: purified MPO; test: Purified MPO oxidation of ABTS; assay type: biochemical; settings: PIC1 0.5–0.9 mM
Experimental: as §2, §3

[8] = system: MPO in CF sputum sol; test: PIC1 dose-response on MPO activity (TMB) in CF sputum sol #2m; assay type: biochemical
Experimental: as §3

[9] = system: MPO in neutrophil lysate; test: MPO peroxidase activity (TMB) in neutrophil lysate; assay type: biochemical; settings: 0.9 mM PIC1 vs no PIC1, n = 4, P < 0.001
Experimental: Neutrophils from the blood of healthy volunteers were purified from heparinized blood by Hypaque-Ficoll step gradient centrifugation, dextran sedimentation, and hypotonic lysis, as previously described. Neutrophils were adjusted to 1×10^7 cells/ml for the functional studies. Neutrophils were sedimented, lysed in 1% Triton X-100, and 1×10^6 cell/ml equivalent aliquots were used for neutrophil lysate assays.
as §2
as §3, with “For MPO measurements, 100 μl of the prepared O-dianisidine solution was added to each sample and incubated for 2 minutes before adding 100 μl of 2.5 N H2SO4 to stop the reaction.” left out

[10] = system: purified MPO; test: Purified MPO oxidation of TMB; assay type: biochemical
Experimental: as §2, §3

[11] = system: MPO in CF sol; test: pH effect on MPO peroxidase activity (TMB) in CF sol; assay type: biochemical; settings: PIC1 7.5 mM (pH 4.7) vs sol acidified to pH 4.0
Experimental: Assays of pH effect on MPO peroxidase activity in CF sols was performed by adjusting one representative CF sol, initially at a pH of 7.0, to pH values of 6.0, 5.0, and 4.0 using H2SO4. […] TMB was added after 5 minutes.
as §3

[12] = system: complement activation; settings: cited from earlier work
Excerpt: DMSO as a diluent decreas ...

[13] = system: MPO in CF sputum sols; test: MPO peroxidase activity (TMB) in 14 clinical CF sputum sols; assay type: biochemical
Experimental: Expectorated sputum samples were collected in sterile containers and immediately placed on ice. The soluble fraction (sol) was extracted as a supernatant of free flowing liquid after cold (4°C) centrifugation at 14,000 g for 60 minutes, similar to previously described methods. Due to the normal differences in CF sputum viscosity, sol fractions were not normalized for protein content consistent with previously described methods.
as §3

[14] = system: C1q; settings: cited from earlier work
[15] = system: MPO in CF sputum sol; test: MPO peroxidase activity (TMB) in CF sputum sol ± neutrophils (PMN), heat-killed P. aeruginosa or heat-aggregated IgG; assay type: biochemical; settings: CF sol only, + killed P. aeruginosa, + Agg IgG
Experimental: To these samples were added 1×10^6 neutrophils for 1 hour at 37°C. These samples were then analyzed for MPO peroxidase activity by TMB assay, described below.
as §3

[16] = cited from earlier work
Excerpt: Evidence from previous investigators implicate MPO as a major contributor to CF lung damage, which is consistent with MPO being the most prevalent peroxidase in neutrophils and the clear role of neutrophils mediating lung destruction in CF.

[17] = system: MPO heme ring; test: Spectral analysis of MPO heme ring with H2O2; settings: 2.5 mM PIC1, 200 μM H2O2
Experimental: as §1

Substance: IALILEPICCQERAA-dPEG24 [PIC1]
- protection of MPO from bleach [1]: largely protected from the oxidative effects of bleach
- inhibition of purified MPO oxidation of O-dianisidine [2]: dramatically inhibited
- reduction in oxidized TMB [3]: 20 fold
- reversal of TMB oxidation [4]: the color change was reversed and the absorbance value was minimal
- inhibition of MPO peroxidase activity ([5]; 0.5 mM PIC1, 20 μM MPO, P < 0.001): 5.4 fold
- inhibition of MPO peroxidase activity ([5]; MPO concentrations up to 80 μM): Concentration dependent PIC1 inhibition of MPO peroxidase activity
- bleach-mediated iron release from MPO [6]: able to prevent bleach-mediated release of iron from MPO
- inhibition of purified MPO oxidation of ABTS [7]: dramatically inhibited
- reduction in MPO activity ([8]; 7.5 mM PIC1 vs no PIC1, n = 3, P = 0.001): 11.5 fold
- inhibition of MPO activity ([8]; PIC1 titration): dose-dependent inhibition of MPO activity
- inhibition of MPO activity [9]: 12.5 fold
- inhibition of purified MPO oxidation of TMB ([10]; 0.9 mM PIC1, MPO 80 nM, n = 3, P < 0.001): 28 fold
- improvement in MPO inhibition compared with ABAH ([10]; 0.9 mM, TMB, P = 0.002): 7 fold
- role of acidification in MPO inhibition [11]: not mediated by acidification of the sol
- P. aeruginosa-initiated complement activation ([12]; CF sputum sols): can inhibit P. aeruginosa-initiated complement activation
- C5a generation ([12]; CF sputum soluble fraction): can inhibit P. aeruginosa-mediated generation of the pro-inflammatory anaphylatoxin C5a
- median MPO activity after PIC1 ([13]; 7.5 mM PIC1, 14 CF sputum samples, as number of neutrophils lysed to yield equivalent TMB oxidation, baseline median 94.0, P = 0.02): 27.9
- decrease in median MPO activity ([13]; 7.5 mM PIC1, 14 CF sputum samples, vs baseline, P = 0.02): 3.4 fold
- change in MPO activity ([13]; 7.5 mM PIC1, each of 14 samples): decrease in MPO activity
- MPO-postPIC1 median ([13]; PIC1 7.5 mM, 14 samples, MPO-pre median 93.975): 27.935 x 10E6
- MPO-postPIC1 ([13]; PIC1 7.5 mM, sample 1e, MPO-pre 117.41): 30.1 x 10E6
- MPO-postPIC1 ([13]; PIC1 7.5 mM, sample 2j, MPO-pre 17.29): 0 x 10E6
- MPO-postPIC1 ([13]; PIC1 7.5 mM, sample 2m, MPO-pre 158.85): 43.21 x 10E6
- MPO-postPIC1 ([13]; PIC1 7.5 mM, sample 3i, MPO-pre 1117.64): 493.15 x 10E6
- MPO-postPIC1 ([13]; PIC1 7.5 mM, sample 4a, MPO-pre 7.9): 0 x 10E6
- MPO-postPIC1 ([13]; PIC1 7.5 mM, sample 5e, MPO-pre 305.93): 173.21 x 10E6
- MPO-postPIC1 ([13]; PIC1 7.5 mM, sample 10g, MPO-pre 71.54): 19.09 x 10E6
- MPO-postPIC1 ([13]; PIC1 7.5 mM, sample 15e, MPO-pre 55.77): 12.92 x 10E6
- MPO-postPIC1 ([13]; PIC1 7.5 mM, sample 17c, MPO-pre 77.44): 25.77 x 10E6
- MPO-postPIC1 ([13]; PIC1 7.5 mM, sample 28a, MPO-pre 325.09): 297.05 x 10E6
- MPO-postPIC1 ([13]; PIC1 7.5 mM, sample 29e, MPO-pre 110.51): 43.24 x 10E6
- MPO-postPIC1 ([13]; PIC1 7.5 mM, sample 34j, MPO-pre 68.92): 16.55 x 10E6
- MPO-postPIC1 ([13]; PIC1 7.5 mM, sample 1d, MPO-pre 229): 214.65 x 10E6
- MPO-postPIC1 ([13]; PIC1 7.5 mM, sample 9d, MPO-pre 34.41): 0 x 10E6
- C1 enzymatic activation [14]: inhibits enzymatic activation
- C1q binding affinity ([14]; similar to C1r-C1s-C1s-C1r tetramer): nanomolar affinity
- MPO oxidation of TMB [15]: dramatically inhibited MPO oxidation of TMB in all conditions
- aqueous solubility [16]: excellent aqueous solubility
- tolerability in vivo [16]: well tolerated in vivo
- heme ring protection [17]: able to inhibit oxidative damage to the heme ring and alteration of the iron charge state

Source: article PMC5279725 (PLoS ONE, 2017)
